“And” between values parts separate entries of the source, which are not always exact repeats. Equal entries are not always repeated.
Experiments:
[1] = tested on: 5/6 nephrectomized 129X1/SvJ mice; experiment: 5/6 nephrectomy model (comparison with ET1/AT1 dual inhibitor); format: in vivo, mouse; details: for UAER / UACR: mean ± SEM; for UACR (mg/mg) at Week 1 / UACR (mg/mg) at Week 4 / UAER (mg/day) at Week 1 / UAER (mg/day) at Week 2 / UAER (mg/day) at Week 4: individual mice; for UACR: CCX872 90 mg/kg s.c. once daily, RAAS blocker 5 mg/kg orally once daily, Sparsentan 90 mg/kg orally twice daily
Experimental: (§1) Chemotaxis, calcium mobilization, and radio-ligand binding assays were conducted as previously described. Inhibition values (IC50) were calculated using non-linear regression with a one-site competition model (GraphPad Prism, GraphPad Software, La Jolla, CA). Urinary albumin was measured by ELISA (Bethyl Labs, Montgomery, TX). Urinary and serum creatinine was measured by LC-MS/MS at ChemoCentryx. The urinary albumin excretion rate (UAER) was calculated as micrograms per 24 h. Blood urea nitrogen (BUN) was measured by Antech Diagnostics (Morrisville, NC). Serum cystatin C was measured by ELISA (R&D Systems, Minneapolis, MN). The albumin to creatinine ratio (ACR) was calculated as micrograms of albumin per milligram of creatinine.
(§2) 5/6 nephrectomy mice on the 129X1/SvJ background were obtained from Jackson Laboratories, and were received at ChemoCentryx after the surgery was performed at JAX. Under isoflurane anesthesia, two-thirds of the left kidney mass was removed at 5–6 weeks of age. Then, after 7 to 10 days, a right unilateral nephrectomy was performed. The mice were fed a standard chow and had free access to water. Three weeks after the 5/6 nephrectomy, the mice were grouped to ensure a similar starting UAER in each treatment group. CCX872 or its vehicle were dosed subcutaneously once daily formulated in 1% HPMC. The RAAS blocker Candesartan (AK Scientific, Union City, CA) and its vehicle were dosed orally once daily at 5 mg/kg formulated in water. Sparsentan, the dual-acting receptor antagonist for endothelin (A type) and angiotensin II receptors (Type 1) was synthesized at ChemoCentryx and was dosed orally twice daily at 90 mg/kg formulated in 1% HPMC. The mice were housed individually in metabolic cages for quantitative collection of urinary albumin and creatinine.
Fig 4 Relative efficacy of CCR2, RAAS, and endothelin receptor blockade in the 5/6 nephrectomy model as assessed by UACR (mg/mg). Mice underwent a 5/6 nephrectomy as described in Methods. Three weeks post-surgery the mice were randomized to the indicated groups for the study period of 4 weeks. Urine was collected for measurement of UACR at the indicated time points, as described in Methods. Error bars represent standard error of the mean. N = 10/group at week 1, and N = 6 at week 4. p values were calculated between each drug-treated group and vehicle treated animals (asterisk), or between the CCX872/RAAS blocker combination and RAAS blocker alone (octothorpe) using student’s t-test (GraphPad Prism).

[2] = tested on: patients with FSGS; parameters: method as in announced by Retrophin; details: 8-week time point, 109 patients with FSGS, compared to irbesartan; ref announced by Retrophin; cited from earlier work
[3] = tested on: 5/6 nephrectomized 129X1/SvJ mice; experiment: 5/6 nephrectomy model (CCX872, RAAS blocker, combination); format: in vivo, mouse; details: for BUN / Serum Creatinine / Serum Cystatin C: terminal bleed; for UACR: CCX872 90 mg/kg s.c., RAAS blocker 5 mg/kg orally, once daily
Experimental: as §1
as §2, with “creatinine. […]” for “creatinine.”
Fig 3 CCX872 improves renal function as assessed by UACR, serum creatinine, BUN and cystatin C in 5/6 nephrectomized mice. Mice underwent a 5/6 nephrectomy as described in Methods. Three weeks post-surgery the mice were randomized to the groups indicated above for the study period of 4 weeks. Urine was collected for measurement of albumin and creatinine at the indicated time points, and UACR was calculated as described in Methods. Serum creatinine, BUN and Cystatin C were measured at time of terminal bleed after four weeks of treatment. Error bars represent standard error of the mean. N = 10/group, and N = 6 at week 3. p values were calculated between each drug-treated group and vehicle treated animals (asterisk), or between CCX872/RAAS blocker combination and RAAS blocker alone (octothorpe) using student’s t-test (GraphPad Prism).

[4] = tested on: Adriamycin challenged female Balb/c mice; experiment: Adriamycin induced nephropathy model; format: in vivo, mouse; details: for UAER: mean ± SEM
Experimental: Chemotaxis, calcium mobilization, and radio-ligand binding assays were conducted as previously described. Inhibition values (IC50) were calculated using non-linear regression with a one-site competition model (GraphPad Prism, GraphPad Software, La Jolla, CA). Urinary albumin was measured by ELISA (Bethyl Labs, Montgomery, TX). Urinary and serum creatinine was measured by LC-MS/MS at ChemoCentryx. The urinary albumin excretion rate (UAER) was calculated as micrograms per 24 h. Blood urea nitrogen (BUN) was measured by Antech Diagnostics (Morrisville, NC). Serum cystatin C was measured by ELISA (R&D Systems, Minneapolis, MN). The albumin to creatinine ratio (ACR) was calculated as micrograms of albumin per milligram of creatinine. These experiments were performed using female Balb/c mice (Jackson Laboratories, Bar Harbor, Maine). The mice were kept on standard chow and had free access to water. At age of 10 weeks, 7.5 mg/kg Adriamycin (Selleck Chemicals, Houston, TX) or saline (control) was injected via tail vein in isoflurane-anesthetized animals (day 0). CCX872 and/or vehicle were dosed subcutaneously once daily at 90 mg/kg formulated in 1% HPMC. The RAAS blocker Candesartan (AK Scientific, Union City, CA) and its vehicle were dosed orally once daily at 5 mg/kg, formulated in water. All dosing started 2 hours prior Adriamycin challenge. The mice were housed individually in metabolic cages for quantitative collection of urinary albumin and creatinine.  Fig 2 CCX872 improves renal function as assessed by UACR, serum creatinine and BUN in adriamycin challenged mice. Mice were challenged with Adriamycin as described in Methods. Test compound treatment was begun one hour prior to the Adriamycin challenge. Urine was collected for measurement of UAER (S3 Table) and creatinine at the indicated time points, and UACR was calculated as described in Methods. Serum creatinine and BUN were measured at time of terminal bleed after two weeks of treatment. Error bars represent standard error of the mean. N = 10/group at week 1, and N = 8 at week 2. p values were calculated on each treated group to vehicle treated animals using student’s t-test (GraphPad Prism).

[5] = tested on: Adriamycin challenged female Balb/c mice; experiment: Adriamycin induced nephropathy model; format: in vivo, mouse; details: individual mice
[6] = four-week time point, mean ± SEM
[7] = individual mice, listed as RAASi
[8] = terminal bleed, individual mice

CCCCC1=NC2(CCCC2)C(=O)N1Cc1ccc(-c2ccccc2S(=O)(=O)Nc2noc(C)c2C)c(COCC)c1 [ET1/AT2 Dual Blocker, Sparsentan]
UAER ([1]; Week 1): 2.64 ± 0.75, p=0.036 mg/day
UAER ([1]; Week 2): 1.54 ± 2.15, p=0.01 mg/day
UAER ([1]; Week 4): 1.15 ± 1.47, p=0.001 mg/day
UACR (mg/mg) at Week 1 ([1]; listed as ET1/AT1 Dual): 1.081 mg/mg and 2.162 mg/mg and 2.864 mg/mg and 2.81 mg/mg and 3.047 mg/mg and 2.101 mg/mg and 2.214 mg/mg and 0.6904 mg/mg and 5.004 mg/mg
UACR (mg/mg) at Week 4 ([1]; listed as ET1/AT1 Dual): 2.388 mg/mg and 0.4973 mg/mg and 0.675 mg/mg and 0.2626 mg/mg and 0.5926 mg/mg and 2.095 mg/mg and 0.7726 mg/mg
UAER (mg/day) at Week 1 ([1]; listed as ET1/AT1 Dual): 0.8511 mg/day and 1.523 mg/day and 1.648 mg/day and 2.037 mg/day and 2.769 mg/day and 1.544 mg/day and 1.531 mg/day and 0.6428 mg/day and 5.6 mg/day
UAER (mg/day) at Week 2 ([1]; listed as ET1/AT1 Dual): 1.304 mg/day and 1.518 mg/day and 4.44 mg/day and 2.237 mg/day and 1.797 mg/day and 4.071 mg/day and 1.476 mg/day and 0.485 mg/day and 1.88 mg/day
UAER (mg/day) at Week 4 ([1]; listed as ET1/AT1 Dual): 1.009 mg/day and 1.391 mg/day and 0.6452 mg/day and 0.283 mg/day and 0.9648 mg/day and 0.8066 mg/day and 1.065 mg/day
UACR reduction vs vehicle ([1]; week one): 93.5%
UACR ([1]; week one): 2.44 ± 0.42 mg/mg
proteinuria (primary endpoint) [2]: statistically significant reduction in proteinuria as compared to irbesartan

CCOc1nc2cccc(C(=O)O)c2n1Cc1ccc(-c2ccccc2-c2nnn[nH]2)cc1 [RAAS Blocker, Candesartan]
UAER ([1]; Week 1): 9.38 ± 7.70, p=0.27 mg/day
UAER ([1]; Week 2): 7.72 ± 6.37, p=0.06 mg/day
UAER ([1]; Week 4): 1.74 ± 2.49, p=0.02 mg/day
UACR (mg/mg) at Week 1 [1]: 0.2531 mg/mg and 1.465 mg/mg and 2.285 mg/mg and 73.9074 mg/mg and 1.319 mg/mg and 7.089 mg/mg and 0.4551 mg/mg and 1.07 mg/mg
UACR (mg/mg) at Week 4 [1]: 0.751 mg/mg and 2.804 mg/mg and 0.2303 mg/mg and 0.9337 mg/mg and 0.4088 mg/mg and 0.9456 mg/mg
UAER (mg/day) at Week 1 [1]: 0.1519 mg/day and 0.9615 mg/day and 2.137 mg/day and 63.0549 mg/day and 1.2792 mg/day and 6.0897 mg/day and 0.4778 mg/day and 0.9119 mg/day
UAER (mg/day) at Week 2 [1]: 0.4333 mg/day and 5.515 mg/day and 1.464 mg/day and 44.8051 mg/day and 0.7469 mg/day and 7.145 mg/day and 0.2974 mg/day and 1.3574 mg/day
UAER (mg/day) at Week 4 [1]: 1.13 mg/day and 3.156 mg/day and 0.298 mg/day and 1.221 mg/day and 0.2117 mg/day and 1.028 mg/day
UACR ([1]; week one): 10.98 ± 9.02 mg/mg
UAER ([3]; Week 1, mean ± SEM): 8.27± 1.89, p=0.03 mg/day
UAER ([3]; Week 2, mean ± SEM): 3.62 ± 1.63, p=0.03 mg/day
UAER ([3]; Week 3, mean ± SEM): 3.32 ± 0.76, p<0.0001 mg/day
BUN [3, 6]: 247.0 ± 16.42 mg/dL
Serum Creatinine [3, 6]: 2.78 ± 0.27 µg/mL
UAER (mg/day) at Week 1 ([3]; individual mice): 2.15 mg/day and 4.699 mg/day and 15.5467 mg/day and 16.4212 mg/day and 15.0186 mg/day and 0.6806 mg/day and 9.638 mg/day and 3.148 mg/day and 4.462 mg/day and 10.9401 mg/day
UAER (mg/day) at Week 2 ([3]; individual mice): 0.7796 mg/day and 9.402 mg/day and 12.4793 mg/day and 1.127 mg/day and 0.5679 mg/day and 1.491 mg/day and 1.407 mg/day and 1.719 mg/day
UAER (mg/day) at Week 3 ([3]; individual mice): 5.801 mg/day and 4.3025 mg/day and 1.247 mg/day and 2.019 mg/day and 1.844 mg/day and 4.699 mg/day
UACR (mg/mg) at Week 1 [3, 7]: 5.748 mg/mg and 5.722 mg/mg and 28.9118 mg/mg and 21.9395 mg/mg and 21.4656 mg/mg and 1.415 mg/mg and 15.8208 mg/mg and 5.683 mg/mg and 7.266 mg/mg and 18.781 mg/mg
UACR (mg/mg) at Week 3 [3, 7]: 7.871 mg/mg and 8.029 mg/mg and 3.677 mg/mg and 3.863 mg/mg and 2.8993 mg/mg and 7.734 mg/mg
Serum Cystatin C ([3]; individual mice): 0.9323 µg/mL and 2.095 µg/mL and 2.201 µg/mL and 1.815 µg/mL and 2.053 µg/mL and 1.1273 µg/mL and 1.429 µg/mL and 1.517 µg/mL and 1.562 µg/mL and 2.118 µg/mL
BUN [3, 7]: 245 mg/dL and 215 mg/dL and 265 mg/dL and 205 mg/dL and 330 mg/dL and 255 mg/dL and 170 mg/dL and 210 mg/dL
Serum Creatinine [3, 7]: 2.46 µg/mL and 1.88 µg/mL and 2.93 µg/mL and 2.22 µg/mL and 2.77 µg/mL and 2.85 µg/mL and 2.01 µg/mL and 5.03 µg/mL and 2.87 µg/mL
Serum Cystatin C ([3]; mean ± SEM): 1.68 ± 0.14 µg/mL
UACR ([3]; week 1, mean ± SEM): 13.28 ± 2.928 mg/mg
UACR ([3]; week 3, mean ± SEM): 5.679 ± 0.99 mg/mg
UAER ([4]; Week 1): 39.46 ± 14.14, p=0.16 mg/day
UAER ([4]; Week 2): 66.87 ± 23.99, p=0.52 mg/day
BUN [4, 8]: 100 mg/dL and 80 mg/dL and 65 mg/dL and 70 mg/dL and 85 mg/dL and 125 mg/dL and 75 mg/dL
Serum Creatinine [4, 8]: 0.927 µg/mL and 1.08 µg/mL and 1.05 µg/mL and 1.06 µg/mL and 0.956 µg/mL and 1.21 µg/mL and 0.91 µg/mL and 1.09 µg/mL and 1.14 µg/mL and 1.35 µg/mL
UACR (mg/mg) at Week 1 [5]: 20.0842 mg/mg and 22.2965 mg/mg and 25.3406 mg/mg and 40.1693 mg/mg and 41.555 mg/mg and 302.958 mg/mg and 55.6444 mg/mg and 187.49 mg/mg and 117.091 mg/mg and 7.322 mg/mg
UACR (mg/mg) at Week 2 [5]: 56.294 mg/mg and 76.9257 mg/mg and 96.611 mg/mg and 232.005 mg/mg and 248.91 mg/mg and 18.6549 mg/mg and 102.568 mg/mg and 35.7503 mg/mg
UAER (mg/day) at Week 1 [5]: 10.1862 mg/day and 10.9954 mg/day and 11.0332 mg/day and 14.9575 mg/day and 18.3446 mg/day and 113.025 mg/day and 29.5364 mg/day and 126.741 mg/day and 54.0627 mg/day and 5.677 mg/day
UAER (mg/day) at Week 2 [5]: 28.1393 mg/day and 36.5424 mg/day and 35.6435 mg/day and 176.989 mg/day and 173.035 mg/day and 14.0491 mg/day and 53.4766 mg/day and 17.1116 mg/day
